The values below come from PubChem BioAssay (NCI).

The TGI is the concentration giving total growth inhibition. Higher therefore signals less potent growth arrest.

Test systems include CCRF-CEM leukemia; HOP-92 NSCLC; SK-OV-3 ovarian; KM12 colon; U251 CNS; SR leukemia; MOLT-4 leukemia; SK-MEL-2 melanoma; UACC-62 melanoma; MDA-MB-435.
Test in all cases: DTP human tumour cell line panel, 48 h

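Where inhibition never reached the appropriate level, the endpoint shown equals the highest concentration tested. Otherwise, values were interpolated linearly from a five-concentration, 48-hour dose response in 96-well plates. TGI: concentration producing complete growth inhibition.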

For the compound `COC(=O)C1C=CCON2CCc3c(n(C)c4ccccc34)C12` (centres undefined), the concentration for total growth inhibition (TGI) in the assay with CCRF-CEM leukemia, in the assay on HOP-92 NSCLC, with SK-OV-3 ovarian, with KM12 colon, in the assay on U251 CNS and with SR leukemia was more than 100 µM throughout. Also, the TGI in the assay on MOLT-4 leukemia and in the assay with SK-MEL-2 melanoma was more than 100 µM throughout.

As to `CNC(=S)N/N=C(\C(=N/NC(=S)NC)c1ccccn1)c1ccccn1`, the TGI in the assay with UACC-62 melanoma, in the assay with HOP-92 NSCLC, in the assay with SK-OV-3 ovarian, in the assay with MDA-MB-435, with KM12 colon and with U251 CNS was more than 100 µM in each case. In addition, the TGI with SK-MEL-2 melanoma is more than 100 µM.

On to `CC1(C)C(CCO)CC1n1cc(I)c(=O)[nH]c1=O` (centres undefined), for which the TGI in the assay with CCRF-CEM leukemia, in the assay with UACC-62 melanoma, in the assay on HOP-92 NSCLC, in the assay with SK-OV-3 ovarian, in the assay on MDA-MB-435 and with KM12 colon was more than 100 µM throughout. Also, the TGI in the assay on U251 CNS, with MOLT-4 leukemia and with SK-MEL-2 melanoma was more than 100 µM each time.

With `O=C(c1ccccc1)n1cc(-c2ccccc2)c2c(=O)[nH]cnc21`, the TGI in the assay on CCRF-CEM leukemia, with UACC-62 melanoma, in the assay on HOP-92 NSCLC, in the assay with SK-OV-3 ovarian, with MDA-MB-435 and with KM12 colon was more than 100 µM throughout. In addition, the TGI with U251 CNS, in the assay on MOLT-4 leukemia and in the assay with SK-MEL-2 melanoma was more than 100 µM each time.

Consider `CN(CCO)CCCC1COc2ccccc2O1` (centres undefined), for which the TGI with CCRF-CEM leukemia, in the assay on UACC-62 melanoma, in the assay on HOP-92 NSCLC, in the assay with SK-OV-3 ovarian, in the assay with U251 CNS and with SR leukemia was more than 100 µM each time. In the assay on MOLT-4 leukemia, the TGI was more than 100 µM.

For the compound `COC(=O)/C(=N/Nc1cccc(Cl)c1)C(C(=O)C(=O)Nc1cccc(Cl)c1C)c1nc2ccccc2nc1C` (centres undefined), the TGI with CCRF-CEM leukemia, in the assay on UACC-62 melanoma, in the assay with SK-OV-3 ovarian, in the assay on KM12 colon, with SR leukemia and in the assay with MOLT-4 leukemia was more than 100 µM in each case. Besides, the TGI in the assay with SK-MEL-2 melanoma was more than 100 µM.

With `O=[N+]([O-])c1ccccc1S(=O)(=O)c1ccccc1`, the TGI in the assay with CCRF-CEM leukemia, in the assay with UACC-62 melanoma, with HOP-92 NSCLC, in the assay with SK-OV-3 ovarian, in the assay on KM12 colon and in the assay on U251 CNS was more than 100 µM in each case. Further, the total growth inhibition concentration (TGI) in the assay on SR leukemia, with MOLT-4 leukemia and in the assay with SK-MEL-2 melanoma was more than 100 µM throughout.

`COc1cc(C2=NNC(=O)c3ccccc3N2c2nc(-c3cccs3)nc3ccc(Br)cc23)cc(OC)c1OC`: the concentration for total growth inhibition (TGI) in the assay with CCRF-CEM leukemia was more than 100 µM; in the assay with UACC-62 melanoma it was more than 100 µM; with HOP-92 NSCLC, 27.7 µM; with SK-OV-3 ovarian, more than 100 µM; in the assay with MDA-MB-435, 68.5 µM; with KM12 colon, 30.5 µM. The results for the total growth inhibition concentration (TGI) in the assay with U251 CNS and in the assay on SK-MEL-2 melanoma were 92.9 µM and more than 100 µM, respectively.

Turning to `O=S(OC12CC3CC(CC(C3)C1)C2)c1cc(Cl)cc(Cl)c1OCc1ccccc1` (centres undefined), the TGI with CCRF-CEM leukemia, with UACC-62 melanoma, in the assay on SK-OV-3 ovarian, in the assay with KM12 colon, with U251 CNS and in the assay with SR leukemia was more than 100 µM each time. Further, the total growth inhibition concentration (TGI) in the assay on MOLT-4 leukemia and in the assay on SK-MEL-2 melanoma was more than 100 µM each time.

Consider `COc1cc(C2c3cc4c(cc3OC(Nc3ccccc3)C2C)OCO4)cc(OC)c1O` (centres undefined), for which the TGI in the assay on UACC-62 melanoma worked out at 23 µM; in the assay on HOP-92 NSCLC it was 48.7 µM; in the assay on MDA-MB-435 it was 1.95 µM; in the assay on KM12 colon it was 38.7 µM; in the assay with U251 CNS it was 14.2 µM; with MOLT-4 leukemia, 11.2 µM. The same compound had a TGI in the assay on SK-MEL-2 melanoma of 8.59 µM.

For `O=c1cc(NNc2cccc(F)c2)[nH]c(=O)[nH]1`, the total growth inhibition concentration (TGI) was 55.9 µM in the assay with CCRF-CEM leukemia; more than 100 µM in the assay with UACC-62 melanoma; 30 µM in the assay with HOP-92 NSCLC; more than 100 µM with SK-OV-3 ovarian; more than 100 µM in the assay with KM12 colon; 31 µM with U251 CNS. In addition, the TGI was 61.7 µM in the assay on SR leukemia, 84.3 µM in the assay with MOLT-4 leukemia and more than 100 µM in the assay with SK-MEL-2 melanoma.

In the case of `COc1ccc2c(c1)C/C(=C\c1cccc3ccccc13)C2=O`, the TGI is more than 100 µM with CCRF-CEM leukemia; more than 100 µM with UACC-62 melanoma; more than 100 µM in the assay on SK-OV-3 ovarian; more than 100 µM with KM12 colon; 81.3 µM with U251 CNS; more than 100 µM in the assay with SR leukemia. In the assay with MOLT-4 leukemia, this compound registered a TGI of more than 100 µM.

`Cc1nc2c(o1)C(=Nc1ccccc1)c1ccccc1C2=O`: the TGI in the assay with CCRF-CEM leukemia was found to be 45.9 µM; in the assay on UACC-62 melanoma it was 11 µM; with HOP-92 NSCLC, 25.9 µM; with SK-OV-3 ovarian, 28 µM; with KM12 colon, 30.9 µM; in the assay with U251 CNS, 9.4 µM. Further, the TGI in the assay with MOLT-4 leukemia is 48.3 µM; in the assay with SK-MEL-2 melanoma it was 18.9 µM.

Consider `CCCCCCCCCCCCc1ccc(S(=O)(=O)O)cc1.[Zn+2]`, for which the TGI in the assay on CCRF-CEM leukemia, with UACC-62 melanoma, in the assay on HOP-92 NSCLC, in the assay on SK-OV-3 ovarian, in the assay with MDA-MB-435 and in the assay on KM12 colon was more than 100 µM throughout. Further, the TGI in the assay on U251 CNS and in the assay on MOLT-4 leukemia was more than 100 µM throughout.

On to `CCN(CC)c1ccc(N=Nc2ccc([N+](=O)[O-])cc2OC(=O)/C=C/c2ccccc2)c(OC(=O)/C=C/c2ccccc2)c1`, for which the TGI in the assay on CCRF-CEM leukemia is more than 100 µM; with UACC-62 melanoma, more than 74.8 µM; in the assay with HOP-92 NSCLC it was more than 100 µM; with SK-OV-3 ovarian, more than 100 µM; in the assay with KM12 colon, more than 35.8 µM; with U251 CNS, more than 100 µM. For the same compound, the TGI with SR leukemia, in the assay with MOLT-4 leukemia and in the assay with SK-MEL-2 melanoma was more than 100 µM each time.

As to `O=c1cc(-c2c[nH]c3ccccc23)[nH]c2cc3c(cc12)OCO3`, the TGI in the assay on CCRF-CEM leukemia, with UACC-62 melanoma, in the assay with U251 CNS, in the assay on SR leukemia, with MOLT-4 leukemia and in the assay with SK-MEL-2 melanoma was more than 100 µM each time.

On to `CCC/C=C1\CCC(CN(C)C)C1=O` (centres undefined), for which the TGI in the assay on CCRF-CEM leukemia was 1.97 µM; with UACC-62 melanoma, 28.2 µM; with HOP-92 NSCLC, 6.8 µM; with SK-OV-3 ovarian, more than 56.7 µM; in the assay with KM12 colon it was 15.3 µM; in the assay on U251 CNS, 15.6 µM. Besides, the concentration for total growth inhibition (TGI) in the assay with SR leukemia amounted to 8.98 µM; with MOLT-4 leukemia it was 12.6 µM; in the assay on SK-MEL-2 melanoma it was 29.7 µM.

Consider `Cc1ccc2c(=O)c(C(=O)Nn3c(C)csc3=S)c[nH]c2n1`, for which the total growth inhibition concentration (TGI) in the assay with CCRF-CEM leukemia, with UACC-62 melanoma, with MDA-MB-435, in the assay on KM12 colon, in the assay on U251 CNS and in the assay on MOLT-4 leukemia was more than 100 µM each time. In the assay with SK-MEL-2 melanoma, this compound yielded a concentration for total growth inhibition (TGI) of more than 100 µM.

For the compound `COP(=O)(OC)C(NC(=O)C(F)(F)F)(c1ccccc1)C(F)(F)F` (centres undefined), the TGI in the assay with CCRF-CEM leukemia, in the assay with UACC-62 melanoma, in the assay with HOP-92 NSCLC, in the assay with SK-OV-3 ovarian, with KM12 colon and in the assay with U251 CNS was more than 100 µM in each case. The total growth inhibition concentration (TGI) in the assay with SR leukemia, in the assay on MOLT-4 leukemia and in the assay with SK-MEL-2 melanoma was more than 100 µM throughout.

For `COC(=O)[C@H]1NC(=O)CCSSC1(C)C`, the TGI in the assay with CCRF-CEM leukemia, in the assay with UACC-62 melanoma, in the assay on HOP-92 NSCLC, in the assay on MDA-MB-435, in the assay on KM12 colon and in the assay with U251 CNS was more than 100 µM each time. Further, the TGI in the assay with MOLT-4 leukemia and in the assay on SK-MEL-2 melanoma was more than 100 µM in each case.

As to `O=C1C=C2SC3C[C@@]24CC1[N+]1=c2c4c(c(O)c4c2=C(C=N4)CC1)N3`, the TGI was more than 100 µM with CCRF-CEM leukemia; 3.23 µM in the assay on UACC-62 melanoma; more than 100 µM in the assay with HOP-92 NSCLC; 7 µM in the assay on SK-OV-3 ovarian; 4.74 µM with KM12 colon; 3.33 µM with U251 CNS. Besides, the TGI in the assay with MOLT-4 leukemia amounted to 4.11 µM; in the assay with SK-MEL-2 melanoma, 3.35 µM.

As to `O=C1C=CC(=C(c2ccc(O)cc2)c2ccc(O)cc2)C=C1`, the TGI with CCRF-CEM leukemia turned out to be 12.2 µM; in the assay on UACC-62 melanoma, 14.5 µM; in the assay with HOP-92 NSCLC it was 9.27 µM; in the assay with SK-OV-3 ovarian, 32.3 µM; in the assay on KM12 colon, 26.1 µM; in the assay on U251 CNS, 22.6 µM. Also, the TGI in the assay with SR leukemia turned out to be 7.37 µM; in the assay with MOLT-4 leukemia, 29.7 µM; in the assay on SK-MEL-2 melanoma it was 17.7 µM.

`CCCC(C)n1c(C)nc2c1C(=O)c1ccccc1C2=O` (centres undefined): the concentration for total growth inhibition (TGI) is more than 100 µM in the assay on CCRF-CEM leukemia; 23.8 µM in the assay with UACC-62 melanoma; 66.8 µM in the assay on HOP-92 NSCLC; more than 100 µM in the assay with SK-OV-3 ovarian; more than 100 µM in the assay with KM12 colon; more than 100 µM with U251 CNS. Besides, the TGI is more than 100 µM with SR leukemia, more than 100 µM in the assay on MOLT-4 leukemia and 47.1 µM in the assay with SK-MEL-2 melanoma.

As to `COc1cc(CNc2cnc3cc(N)ccc3n2)cc(OC)c1OC`, the concentration for total growth inhibition (TGI) with CCRF-CEM leukemia is more than 100 µM; in the assay on UACC-62 melanoma, more than 100 µM; with HOP-92 NSCLC it was more than 100 µM; in the assay with SK-OV-3 ovarian, 53 µM; with KM12 colon it was more than 100 µM; in the assay on U251 CNS, more than 100 µM. The total growth inhibition concentration (TGI) with SR leukemia was more than 100 µM; with MOLT-4 leukemia it was more than 100 µM; with SK-MEL-2 melanoma, 2.38 µM.
